Where two headings read alike, the source gives them in different places.
Key:
SF-268 = experiment: NCI-60 growth inhibition: SF-268 (CNS Cancer); type: cell-based, human; conditions: Homo sapiens
A498 = experiment: NCI-60 growth inhibition: A498 (Renal Cancer); type: cell-based, human; conditions: Homo sapiens
MDA-MB-435 = experiment: NCI-60 growth inhibition: MDA-MB-435 (Melanoma); type: cell-based, human; conditions: Homo sapiens
SNB-19 = experiment: NCI-60 growth inhibition: SNB-19 (CNS Cancer); type: cell-based, human; conditions: Homo sapiens
EKVX = experiment: NCI-60 growth inhibition: EKVX (Non-Small-Cell Lung Cancer); type: cell-based, human; conditions: Homo sapiens
OVCAR-3 = experiment: NCI-60 growth inhibition: OVCAR-3 (Ovarian Cancer); type: cell-based, human; conditions: Homo sapiens
HCT-116 = experiment: NCI-60 growth inhibition: HCT-116 (Colon Cancer); conditions: Homo sapiens, HCT-116
NCI-H460 = experiment: NCI-60 growth inhibition: NCI-H460 (Non-Small-Cell Lung Cancer); type: cell-based, human; conditions: Homo sapiens
RPMI-8226 = experiment: NCI-60 growth inhibition: RPMI-8226 (Leukemia); type: cell-based, human; conditions: Homo sapiens
CAKI-1 = experiment: NCI-60 growth inhibition: CAKI-1 (Renal Cancer); type: cell-based, human; conditions: Homo sapiens
UO-31 = experiment: NCI-60 growth inhibition: UO-31 (Renal Cancer); type: cell-based, human; conditions: Homo sapiens
PC-3 = experiment: NCI-60 growth inhibition: PC-3 (Prostate Cancer); type: cell-based, human; conditions: Homo sapiens
MOLT-4 = experiment: NCI-60 growth inhibition: MOLT-4 (Leukemia); type: cell-based, human; conditions: Homo sapiens
NCI-H522 = experiment: NCI-60 growth inhibition: NCI-H522 (Non-Small-Cell Lung Cancer); conditions: Homo sapiens, NCI-H522
LOX IMVI = experiment: NCI-60 growth inhibition: LOX IMVI (Melanoma); type: cell-based, human; conditions: Homo sapiens
HS 578T = experiment: NCI-60 growth inhibition: HS 578T (Breast Cancer); type: cell-based, human; conditions: Homo sapiens
U251 = experiment: NCI-60 growth inhibition: U251 (CNS Cancer); type: cell-based, human; conditions: Homo sapiens, U-251
DU-145 = experiment: NCI-60 growth inhibition: DU-145 (Prostate Cancer); type: cell-based, human; conditions: Homo sapiens
OVCAR-4 = experiment: NCI-60 growth inhibition: OVCAR-4 (Ovarian Cancer); type: cell-based, human; conditions: Homo sapiens
MDA-MB-231/ATCC = experiment: NCI-60 growth inhibition: MDA-MB-231/ATCC (Breast Cancer); type: cell-based, human; conditions: Homo sapiens
T-47D = experiment: NCI-60 growth inhibition: T-47D (Breast Cancer); type: cell-based, human; conditions: Homo sapiens, T47D
HOP-92 = experiment: NCI-60 growth inhibition: HOP-92 (Non-Small-Cell Lung Cancer); type: cell-based, human; conditions: Homo sapiens
BT-549 = experiment: NCI-60 growth inhibition: BT-549 (Breast Cancer); type: cell-based, human; conditions: Homo sapiens
SK-MEL-5 = experiment: NCI-60 growth inhibition: SK-MEL-5 (Melanoma); type: cell-based, human; conditions: Homo sapiens
SF-539 = experiment: NCI-60 growth inhibition: SF-539 (CNS Cancer); type: cell-based, human; conditions: Homo sapiens
HT29 = experiment: NCI-60 growth inhibition: HT29 (Colon Cancer); type: cell-based, human; conditions: Homo sapiens, HT-29
M14 = experiment: NCI-60 growth inhibition: M14 (Melanoma); type: cell-based, human; conditions: Homo sapiens
SK-MEL-28 = experiment: NCI-60 growth inhibition: SK-MEL-28 (Melanoma); type: cell-based, human; conditions: Homo sapiens
TK-10 = experiment: NCI-60 growth inhibition: TK-10 (Renal Cancer); type: cell-based, human; conditions: Homo sapiens
MCF7 = experiment: NCI-60 growth inhibition: MCF7 (Breast Cancer); type: cell-based, human; conditions: Homo sapiens
NCI-H23 = experiment: NCI-60 growth inhibition: NCI-H23 (Non-Small-Cell Lung Cancer); type: cell-based, human; conditions: Homo sapiens
ACHN = experiment: NCI-60 growth inhibition: ACHN (Renal Cancer); type: cell-based, human; conditions: Homo sapiens
COLO 205 = experiment: NCI-60 growth inhibition: COLO 205 (Colon Cancer); type: cell-based, human; conditions: Homo sapiens
RXF 393 = experiment: NCI-60 growth inhibition: RXF 393 (Renal Cancer); type: cell-based, human; conditions: Homo sapiens
HCT-15 = experiment: NCI-60 growth inhibition: HCT-15 (Colon Cancer); type: cell-based, human; conditions: Homo sapiens
MDA-MB-468 = experiment: NCI-60 growth inhibition: MDA-MB-468 (Breast Cancer); type: cell-based, human; conditions: Homo sapiens; MDA-MB-468 (Breast Cancer); read-out: GI50
IGROV1 = experiment: NCI-60 growth inhibition: IGROV1 (Ovarian Cancer); type: cell-based, human; conditions: Homo sapiens, IGROV-1
OVCAR-8 = experiment: NCI-60 growth inhibition: OVCAR-8 (Ovarian Cancer); type: cell-based, human; conditions: Homo sapiens
OVCAR-5 = experiment: NCI-60 growth inhibition: OVCAR-5 (Ovarian Cancer); type: cell-based, human; conditions: Homo sapiens
[1] = test system: MV4-11 cell line (myelomonocytic leukemia); conditions: MV4-11 cells, 24 h
786-0 = experiment: NCI-60 growth inhibition: 786-0 (Renal Cancer); type: cell-based, human; conditions: Homo sapiens
K-562 = experiment: NCI-60 growth inhibition: K-562 (Leukemia); type: cell-based, human; conditions: Homo sapiens, K562
SN12C = experiment: NCI-60 growth inhibition: SN12C (Renal Cancer); type: cell-based, human; conditions: Homo sapiens
UACC-257 = experiment: NCI-60 growth inhibition: UACC-257 (Melanoma); type: cell-based, human; conditions: Homo sapiens
CCRF-CEM = experiment: NCI-60 growth inhibition: CCRF-CEM (Leukemia); type: cell-based, human; conditions: Homo sapiens
MALME-3M = experiment: NCI-60 growth inhibition: MALME-3M (Melanoma); type: cell-based, human; conditions: Homo sapiens
SK-MEL-2 = experiment: NCI-60 growth inhibition: SK-MEL-2 (Melanoma); type: cell-based, human; conditions: Homo sapiens
SW-620 = experiment: NCI-60 growth inhibition: SW-620 (Colon Cancer); type: cell-based, human; conditions: Homo sapiens
UACC-62 = experiment: NCI-60 growth inhibition: UACC-62 (Melanoma); type: cell-based, human; conditions: Homo sapiens
SH-SY5Y-APPSw cells = experiment: Thioflavin-T staining of amyloid-like aggregates in SH-SY5Y-APPSw cells; type: cell-based, human; conditions: neuronal cells (FIG. 9)
Procedure: Several TDZD-conjugated drugs (putative GSK-3 inhibitors) were evaluated for their ability to reduce accumulation of protein aggregates, and for protection against aggregation-associated end-points in the following model systems: (i.) SH-SY5Y-APPSw, a neuroblastoma cell line expressing the Swedish mutation of Amyloid Precursor Protein (APPSw), and thus predisposed to form β-amyloid deposits; (ii.) C. elegans strain CL4176, a model of Alzheimer-like amyloidopathy that can be induced to express human Aβ1-42 in muscle, or may express it at a lower level without induction; (iii.) C. elegans strain AM141, a model of Huntington-like polyglutamine aggregation that constitutively expresses Q40::YFP (a tract of 40 glutamines fused in-frame to yellow fluorescent protein) in muscle cells and forms aggregates progressively with adult aging. The TDZD analog PNR-962 (a putative GSK-3 inhibitor) and other related compounds (not shown) were protective in all aggregation assays.
First, the effects of TDZD analogues were tested on the human neuroblastoma cell line SH-SY5Y-APPSw, a model of Alzheimer-like amyloid aggregation expressing the “Sw” mutant form of Amyloid Precursor Protein, APP. These drugs all produced significant reductions in amyloid-like aggregates, by 30-50% as quantified by thioflavin-T staining intensity (data for PNR-962 are shown in FIG. 4). Modified TDZD-8 analogues PNR-962 and BSK-179 are more anti-aggregative than TDZD-8, lowering total amyloid-staining intensity by a further 14% (data not shown).
Following previously described experimental procedures (Liu, et al. (2005). S100B-induced microglial and neuronal IL-1 expression is mediated by cell type-specific transcription factors. Journal of Neurochemistry. 92(3): 546-553), SH-SY5Y-APPSw neuronal cells expressing an aggregation-prone double mutant of amyloid precursor protein (APPSw) were cultured in DMEM plus 10% (v/v) fetal bovine serum (FBS) at 37° C. Cells were suspended in trypsin/EDTA and rinsed in PBS prior to re-plating or harvesting. […] Human neuroblastoma cells were treated with PNR962, either simultaneous with sAPPα or beginning 1 h prior to sAPPα addition (pre-treatment) in order to ascertain the protective benefits of PNR962 on protein aggregation in human neuroblastoma cell lines. A similar experimental procedure was followed to examine the effect of treatment with these analogs on non-neuronal human cells, exposing human embryonic kidney cells (HEK) that express tau-like aggregates (found in AD-associated diseases) to 0.001, 0.01, and 1-μM doses of TDZD-8 and its analogues.
To observe the protective effects of the novel TDZD analogs on protein aggregation in SY5Y-APPSw cells, using DMEM medium containing 10% fetal calf serum in […], cells were cultured at 37′C for 26 hrs allowing cells to approximately double in number. After 48 h of cell incubation in the presence of specified concentrations of drug or vehicle, cells were fixed 15 min in formaldehyde (4% v/v), washed, and stained 20 min at ˜22° C. in a dark container with 0.1% w/v Thioflavin T mixed with DAPI (1 μg/ml; Life Technologies, Grand Island, N.Y., USA). […] The intensity of aggregate/thioflavin-T fluorescence per field was quantified via an Image J plug-in developed in-house, and normalized to the number of DAPI^+ nuclei counted per field, to obtain an average intensity of aggregates per cell for each treatment.

[2] = Ibuprofen-TDZD analogs (Table 3)

Structure (SMILES): C=C1C(=O)O[C@H]2[C@H]1CC/C(COC(=O)NCc1ccc(Cn3c(=O)sn(CCI)c3=O)cc1)=C\CC[C@@]1(C)O[C@@H]21 [BSK-187]
- GI50 (SF-268): 2.41 µM
- GI50 (A498): 4.44 µM
- GI50 (MDA-MB-435): 2.45 µM
- GI50 (SNB-19): 6.88 µM
- GI50 (EKVX): 2.11 µM
- GI50 (OVCAR-3): 1.64 µM
- GI50 (HCT-116): 1.76 µM
- GI50 (NCI-H460): 6.42 µM
- GI50 (RPMI-8226): 1.98 µM
- GI50 (CAKI-1): 3.79 µM
- GI50 (UO-31): 1.65 µM
- GI50 (PC-3): 1.75 µM
- GI50 (MOLT-4): 1.35 µM
- GI50 (NCI-H522): 1.72 µM
- GI50 (LOX IMVI): 1.69 µM
- GI50 (HS 578T): 7.29 µM
- GI50 (U251): 4.67 µM
- GI50 (DU-145): 1.82 µM
- GI50 (OVCAR-4): 2.02 µM
- GI50 (MDA-MB-231/ATCC): 1.77 µM
- GI50 (T-47D): 1.32 µM
- GI50 (HOP-92): 1.38 µM
- GI50 (BT-549): 2.4 µM
- GI50 (SK-MEL-5): 5.37 µM
- GI50 (SF-539): 1.72 µM
- GI50 (HT29): 2.1 µM
- GI50 (M14): 1.82 µM
- GI50 (SK-MEL-28): 2.06 µM
- GI50 (TK-10): 1.91 µM
- GI50 (MCF7): 1.71 µM
- GI50 (NCI-H23): 3.46 µM
- GI50 (ACHN): 1.89 µM
- GI50 (COLO 205): 1.86 µM
- GI50 (RXF 393): 1.61 µM
- GI50 (HCT-15): 1.91 µM
- GI50 (MDA-MB-468): 1.25 µM
- GI50 (IGROV1): 2.08 µM
- GI50 (OVCAR-8): 4.55 µM
- GI50 (OVCAR-5): 3.28 µM
- LD50, 7AAD (μM) 24 h ([1]; MMB-TDZD analogs (Table 2)): 2.37 µM
- LD50, Alamar blue (μM) 24 h ([1]; MMB-TDZD analogs (Table 2)): 1.0 µM
- LD50, YOPRO (μM) 24 h ([1]; MMB-TDZD analogs (Table 2)): 1.21 µM
- GI50 (786-0): 1.82 µM
- GI50 (K-562): 0.65 µM
- GI50 (SN12C): 2.16 µM
- GI50 (UACC-257): 2.24 µM
- GI50 (CCRF-CEM): 0.5 µM
- GI50 (MALME-3M): 1.68 µM
- GI50 (SK-MEL-2): 11.7 µM
- GI50 (SW-620): 1.66 µM
- GI50 (UACC-62): 1.98 µM

Structure (SMILES): CC(C)Cc1ccc(C(C)C(=O)NCc2ccc(Cn3c(=O)sn(CCCl)c3=O)cc2)cc1 (stereo not shown) [BSK-137]
- LD50, 7AAD (μM) 24 h [1, 2]: 3.39 µM
- LD50, Alamar blue (μM) 24 h [1, 2]: 7.00 µM
- LD50, YOPRO (μM) 24 h [1, 2]: 3.28 µM
- reduction of aggregate intensity (Thioflavin-T staining) (SH-SY5Y-APPSw cells): 34%

Source: US20230125667A1, “NOVEL TDZD ANALOGS AS AGENTS THAT DELAY, PREVENT, OR REVERSE AGE-ASSOCIATED DISEASES AND AS ANTI-CANCER AND ANTILEUKEMIC AGENTS” (United States Government as represented by the Department …, priority 2020, published 2023)
